Assay results published in ChEMBL document CHEMBL1122030, “2-Arylpyrazolo[4,3-c]quinolin-3-ones: novel agonist, partial agonist, and antagonist of benzodiazepines” (J Med Chem, 1982).
Where “and” joins values, the source holds several entries; their conditions need not be identical. Identical values can stand only once.

Tests used:
[1] = target: T1, GABA-A receptor; anion channel (Rattus norvegicus) (UniProt O09028+P15431+P18506+P18508+P19969+P20236+P23574+P23576+P28471+P28473+P30191+P62813+P63079+P63138+Q91ZM7+Q9ES14)
Description: (§2) In vivo inhibition of binding to GABA-A central benzodiazepine-receptor after po administration in rats

[2] = system: Rattus norvegicus; assay: (§1) Effect on anti-convulsive 5.4 mg/kg Diazepam peroral dose in rats given 24 mg/kg iv metrazol, number of rats protected (of 6); format: functional
[3] = system: Rattus norvegicus; assay: as §1; format: functional; remark: listed apart in the source
[4] = system: Rattus norvegicus; assay: Antianxiety effect in cook-davidson behavior test at 1 mg/kg of compound administered perorally in rats expressed as mean percent change; format: functional; conditions: route oral
[5] = system: Rattus norvegicus; assay: Antianxiety effect was assessed by the cook-davidson behavior test at 1 mg/kg of compound administered perorally.; format: functional; conditions: route oral
[6] = system: Rattus norvegicus; assay: as §1; format: functional; remark: listed apart in the source
[7] = target: GABA-A receptor; anion channel; assay: In vitro inhibition of binding to GABA-A central benzodiazepine-receptor of rat brain
[8] = system: Rattus norvegicus; assay: as §1; format: functional; remark: listed apart in the source
[9] = organism: Rattus norvegicus; assay: Antianxiety effect was assessed by the cook-davidson behavior test; format: functional
[10] = system: Rattus norvegicus; assay: Anticonvulsant efficacy when administered perorally was determined in rat metrazole anticonvulsant test; Calculated from responses at 1,3 and 10 mg/kg doses; format: functional; conditions: route oral
[11] = system: Rattus norvegicus; assay: Antianxiety effect in cook-davidson behavior test at 3 mg/kg of compound administered perorally in rats expressed as mean percent change; format: functional; conditions: route oral
[12] = system: Rattus norvegicus; assay: Antianxiety effect was assessed by the cook-davidson behavior test at 10 mg/kg of compound administered perorally.; format: functional; conditions: route oral
[13] = system: Rattus norvegicus; assay: Antianxiety effect in cook-davidson behavior test at 10 mg/kg of compound administered perorally in rats expressed as mean percent change; format: functional; conditions: route oral
[14] = system: Rattus norvegicus; assay: Antianxiety effect was assessed by the cook-davidson behavior test at 3 mg/kg of compound administered perorally.; format: functional; conditions: route oral
[15] = system: Rattus norvegicus; assay: Antianxiety effect was assessed by the cook-davidson behavior test at 30 mg/kg of compound administered perorally.; format: functional; conditions: route oral
[16] = target: T1, GABA-A receptor; anion channel (Rattus norvegicus); remark: listed apart in the source
Description: as §2

[17] = system: Rattus norvegicus; assay: Antianxiety effect in cook-davidson behavior test at 30 mg/kg of compound administered perorally in rats expressed as mean percent change; format: functional; conditions: route oral
[18] = system: Rattus norvegicus; assay: Anticonvulsant efficacy when administered perorally was determined in rat metrazole anticonvulsant test; format: functional; conditions: po
[19] = target: T1, GABA-A receptor; anion channel (Rattus norvegicus); remark: listed apart in the source
Description: In vivo inhibition of binding to GABA-A central benzodiazepine-receptor after ip administration in rats

| SMILES | ID50 [1] [mg/kg] | No. of animals protected [2] | No. of animals protected [3] | VI30 [4] [%] | FR10 treated [5] | No. of animals protected [6] | IC50 [7] [nM] | No. of animals protected [8] | FR10 control [9] | ED50 [10] [mg/kg] | VI30 [11] [%] | FR10 treated [12] | VI30 [13] [%] | FR10 treated [14] | FR10 treated [15] | ID50 [16] [mg/kg] | VI30 [17] [%] | ED50 [18] [mg/kg] | ID50 [19] [mg/kg] |
| --- | --- | --- | --- | --- | --- | --- | --- | --- | --- | --- | --- | --- | --- | --- | --- | --- | --- | --- | --- |
| O=C1C2C=Nc3ccccc3C2=NN1c1ccccc1 (stereo not given) [CGS-8216] | 7.06 | 0 | 1 | 0.1 | 87 | 0 | 0.4 | 5 |  |  |  |  |  |  |  |  |  |  |  |
| COc1ccc(-n2nc3c4ccccc4[nH]cc-3c2=O)cc1 |  |  |  | 6.5 | 98 |  | 0.1 | 4 | 61 and 65 and 50 | 2.81 | 7.8 | 100 | 5.7 | 124 |  |  |  |  |  |
| CN1C(=O)CN=C(c2ccccc2)c2cc(Cl)ccc21 [DIAZEPAM] |  |  |  | 5.9 | 97 |  |  |  | 82 and 85 and 63 and 76 |  | 6.1 | 206 | 3.6 | 131 | 240 | 5 | -23.8 | 4 |  |
| O=C1C2C=Nc3ccccc3C2=NN1c1ccc(Cl)cc1 (stereo not given) [CGS-9896] |  |  |  | 0.1 | 217 |  | 0.6 |  | 67 and 112 and 81 and 73 |  | 10.2 | 230 | 18.2 | 234 |  |  | 7.5 | 0.9 | 3.3 |
